Assay results reported in US20240051952A1, “HMOX1 INDUCERS” (Mitobridge Inc., priority 2019, published 2024).

Test system: Human Heme Oxygenase-1 (HMOX-1)
Experiment: ELISA assay to measure human heme oxygenase-1 (HMOX-1) in HepG2 lysate
Type: cell-based
Details: fold change of human HMOX1 protein levels relative to DMSO control, HepG2
Method in brief: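 HepG2 cells lysed in PBS/0.5% Triton X-100/1 mM EDTA with protease inhibitors; lysate diluted 1:20. Sandwich ELISA: anti-HO-1 capture (8 μg/ml), biotinylated detection antibody (200 ng/ml), streptavidin-HRP, chemiluminescent read. Quantified against 12-point HO-1 standard curve from 20 ng/ml; incubations at 20 °C.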

| SMILES | Maximum Fold induction |
| --- | --- |
| Cn1c(Nc2nc3cc(C(F)(F)F)ccc3o2)nc2cc(C(=O)NCCOCCO)ccc21 [Example 43, N-(2-(2-hydroxyethoxy)ethyl)-1-methyl-2-((5-(trifluoromethyl)benzo[d]oxazol-2-yl)amino)-1H-benzo[d]imidazole-5-carboxamide] | 56 |
| CC(O)COCCNC(=O)c1ccc2c(c1)nc(Nc1nc3ccccc3o1)n2C (stereo not shown) [Example 25] | 26 |
| Cn1c(Nc2nc3ccccc3o2)nc2cc(C(=O)NCCOCC(=O)O)ccc21 [Example 29, 2-(2-(2-(benzo[d]oxazol-2-ylamino)-1-methyl-1H-benzo[d]imidazole-5-carboxamido)ethoxy)acetic acid] | 12 |
| COCCNC(=O)c1ccc2c(c1)nc(Nc1nc3ccc(OC(F)(F)F)cc3o1)n2CCOC [Example 78, N,1-bis(2-methoxyethyl)-2-((6-(trifluoromethoxy)benzo[d]oxazol-2-yl)amino)-1H-benzo[d]imidazole-5-carboxamide] | 21-23 |
| COCCNC(=O)c1ccc2c(c1)nc(Nc1nc3ccccc3[nH]1)n2C [Example 12, 2-((1H-benzo[d]imidazol-2-yl)amino)-N-(2-methoxyethyl)-1-methyl-1H-benzo[d]imidazole-5-carboxamide] | 5.5 |
| COCCNC(=O)c1ccc2c(c1)nc(Nc1nc3cc(OC(F)(F)F)ccc3[nH]1)n2C [Example 14, N-(2-methoxyethyl)-1-methyl-2-((5-(trifluoromethoxy)-1H-benzo[d]imidazol-2-yl)amino)-1H-benzo[d]imidazole-5-carboxamide] | 6-25 |
| Cl.Cn1c(Nc2nc3ccc(OCCO)cc3o2)nc2cc(C(=O)NCCN)ccc21 [Example 105, N-(2-aminoethyl)-2-((6-(2-hydroxyethoxy)benzo[d]oxazol-2-yl)amino)-1-methyl-1H-benzo[d]imidazole-5-carboxamide hydrochloride] | 36 |
| Cn1c(Nc2nc3ccc(C(F)(F)F)cc3o2)nc2cc(C(=O)NCCO)ccc21 [Example 33, N-(2-hydroxyethyl)-1-methyl-2-((6-(trifluoromethyl)benzo[d]oxazol-2-yl)amino)-1H-benzo[d]imidazole-5-carboxamide] | 32-45 |
| COCCNC(=O)c1ccc2c(c1)nc(Nc1nc3ccc(OC(F)(F)F)cc3o1)n2CC1(O)COC1 [Example 94, 1-((3-hydroxyoxetan-3-yl)methyl)-N-(2-methoxyethyl)-2-((6-(trifluoromethoxy)benzo[d]oxazol-2-yl)amino)-1H-benzo[d]imidazole-5-carboxamide] | 28 |
| COCCOc1ccc2nc(Nc3nc4cc(C(=O)O)ccc4n3C)oc2c1 [Example 55, 2-((6-(2-methoxyethoxy)benzo[d]oxazol-2-yl)amino)-1-methyl-1H-benzo[d]imidazole-5-carboxylic acid] | 15 |
| CN(C)CCNC(=O)c1ccc2c(c1)nc(Nc1nc3ccccc3o1)n2C [Example 21, 2-(benzo[d]oxazol-2-ylamino)-N-(2-(dimethylamino)ethyl)-1-methyl-1H-benzo[d]imidazole-5-carboxamide] | 14 |
| COCCONC(=O)c1ccc2c(c1)nc(Nc1nc3ccc(C(C)=O)cc3o1)n2C [Example 132, 2-((6-acetylbenzo[d]oxazol-2-yl)amino)-N-(2-methoxyethoxy)-1-methyl-1H-benzo[d]imidazole-5-carboxamide] | 39 |
| Cn1c(Nc2nc3ccccc3o2)nc2cc(C(=O)NCCOCC(C)(C)O)ccc21 [Example 27, 2-(benzo[d]oxazol-2-ylamino)-N-(2-(2-hydroxy-2-methylpropoxy)ethyl)-1-methyl-1H-benzo[d]imidazole-5-carboxamide] | 17 |
| O=C(O)c1ccc2c(c1)nc(Nc1nc3ccc(OC(F)(F)F)cc3o1)n2CC1CCOC1 (stereo not shown) [Example 87, 1-((tetrahydrofuran-3-yl)methyl)-2-((6-(trifluoromethoxy)-benzo[d]oxazol-2-yl)amino)-1H-benzo[d]imidazole-5-carboxylic acid] | 21 |

The remaining lines, values ahead:

| Maximum Fold induction | SMILES |
| --- | --- |
| 23 | Cn1c(Nc2nc3ccc(OCCO)cc3o2)nc2cc(C(=O)NCCOCCO)ccc21 [Example 104, 2-((6-(2-hydroxyethoxy)benzo[d]oxazol-2-yl)amino)-N-(2-(2-hydroxyethoxy)ethyl)-1-methyl-1H-benzo[d]imidazole-5-carboxamide] |
| 27 | Cn1c(Nc2nc3ccccc3o2)nc2cc(C(O)C(F)(F)F)ccc21 (stereo not shown) [Example 142, 1-(2-(benzo[d]oxazol-2-ylamino)-1-methyl-1H-benzo[d]imidazol-5-yl)-2,2,2-trifluoroethan-1-ol] |
| 8 | Cn1c(Nc2nc3ccccc3o2)nc2cc(C(=O)NCCN3CCOCC3)ccc21 [Example 20, 2-(benzo[d]oxazol-2-ylamino)-1-methyl-N-(2-morpholinoethyl)-1H-benzo[d]imidazole-5-carboxamide] |
| 25-31 | COCCNC(=O)c1ccc2c(c1)nc(Nc1nc3ccc(OCC(F)(F)F)cc3o1)n2C [Example 99, N-(2-methoxyethyl)-1-methyl-2-((6-(2,2,2-trifluoroethoxy)benzo[d]oxazol-2-yl)amino)-1H-benzo[d]imidazole-5-carboxamide] |
| 56-82 | Cn1c(Nc2nc3ccc(C(F)(F)F)cc3o2)nc2cc(C(=O)NCC(O)CO)ccc21 (stereo not shown) [Example 39, N-(2,3-dihydroxypropyl)-1-methyl-2-((6-(trifluoromethyl)benzo[d]oxazol-2-yl)amino)-1H-benzo[d]imidazole-5-carboxamide] |
| 5 | COCCNC(=O)c1ccc2c(c1)nc(Nc1nc3c(s1)COCC3)n2C [Example 11, 2-((6,7-dihydro-4H-pyrano[4,3-d]thiazol-2-yl)amino)-N-(2-methoxyethyl)-1-methyl-1H-benzo[d]imidazole-5-carboxamide] |
| 36 | Cn1c(Nc2nc3ccc(N4CCOCC4)cc3o2)nc2cc(C(=O)NCCOCCO)ccc21 [Example 136, N-(2-(2-hydroxyethoxy)ethyl)-1-methyl-2-((6-morpholinobenzo[d]oxazol-2-yl)amino)-1H-benzo[d]imidazole-5-carboxamide] |
| 14-26 | CN(C)CC(=O)NCCNC(=O)c1ccc2c(c1)nc(Nc1nc3ccccc3o1)n2C [Example 19, 2-(benzo[d]oxazol-2-ylamino)-N-(2-(2-(dimethylamino)acetamido)ethyl)-1-methyl-1H-benzo[d]imidazole-5-carboxamide] |
| 28 | Cn1c(Nc2nc3ccc(C(F)(F)F)cc3o2)nc2cc(C(=O)NCCN3CCCCC3)ccc21 [Example 37, 1-methyl-N-(2-(piperidin-1-yl)ethyl)-2-((6-(trifluoromethyl)benzo[d]oxazol-2-yl)amino)-1H-benzo[d]imidazole-5-carboxamide] |
| 19 | COCCNC(=O)c1ccc2c(c1)nc(Nc1nc3ccc(OC(F)(F)F)cc3s1)n2C1CCN(C)C1 (stereo not shown) [Example 4e, N-(2-methoxyethyl)-1-(1-methylpyrrolidin-3-yl)-2-((6-(trifluoromethoxy)benzo[d]thiazol-2-yl)amino)-1H-benzo[d]imidazole-5-carboxamide] |
| 22 | O=C(O)c1ccc2c(c1)nc(Nc1nc3ccc(OC(F)(F)F)cc3o1)n2CC1(O)COC1 [Example 93, 1-((3-hydroxyoxetan-3-yl)methyl)-2-((6-(trifluoromethoxy)benzo[d]oxazol-2-yl)amino)-1H-benzo[d]imidazole-5-carboxylic acid] |
| 13-16 | Cn1c(Nc2nc3ccc(OC(F)(F)F)cc3o2)nc2cc(C(=O)NC(CO)(CO)CO)ccc21 [Example 47, N-(1,3-dihydroxy-2-(hydroxymethyl)propan-2-yl)-1-methyl-2-((6-(trifluoromethoxy)benzo[d]oxazol-2-yl)amino)-1H-benzo[d]imidazole-5-carboxamide] |
| 8-12 | Cn1c(Nc2nc3cc(F)ccc3[nH]2)nc2cc(C(=O)O)ccc21 [Example 73, 2-((5-fluoro-1H-benzo[d]imidazol-2-yl)amino)-1-methyl-1H-benzo[d]imidazole-5-carboxylic acid] |
| 19 | Cn1c(Nc2nc3ccccc3o2)nc2cc(/C(=N/O)C(F)(F)F)ccc21 [Example 140, (Z)-1-(2-(benzo[d]oxazol-2-ylamino)-1-methyl-1H-benzo[d]imidazol-5-yl)-2,2,2-trifluoroethan-1-one oxime] |
| 21 | Cn1c(Nc2nc3ccc(OCCO)cc3o2)nc2cc(C(=O)O)ccc21 [Example 101, 2-((6-(2-hydroxyethoxy)benzo[d]oxazol-2-yl)amino)-1-methyl-1H-benzo[d]imidazole-5-carboxylic acid] |
| 13 | CN1CCC(n2c(Nc3nc4ccc(OC(F)(F)F)cc4s3)nc3cc(C(=O)O)ccc32)CC1 [Example 3d, 1-(1-methylpiperidin-4-yl)-2-((6-(trifluoromethoxy)benzo[d]thiazol-2-yl)amino)-1H-benzo[d]imidazole-5-carboxylic acid] |
| 8-27 | Cn1c(Nc2nc3ccccc3o2)nc2cc(C(=O)NCCO)ccc21 [Example 16, 2-(benzo[d]oxazol-2-ylamino)-N-(2-hydroxyethyl)-1-methyl-1H-benzo[d]imidazole-5-carboxamide] |
| 15-32 | CCn1c(Nc2nc3ccc(OC(F)(F)F)cc3o2)nc2cc(C(=O)NCCO)ccc21 [Example 86, 1-ethyl-N-(2-hydroxyethyl)-2-((6-(trifluoromethoxy)benzo[d]oxazol-2-yl)amino)-1H-benzo[d]imidazole-5-carboxamide] |

Same assay, conditions: human HMOX1 protein in HepG2 lysate, ELISA; * = average of 2 or more EC50 determinations; NA = Not Active

| SMILES | EC50 [nM] |
| --- | --- |
| COCCOc1ccc2nc(Nc3nc4cc(C(=O)O)ccc4n3C)oc2c1 [Example 55, 2-((6-(2-methoxyethoxy)benzo[d]oxazol-2-yl)amino)-1-methyl-1H-benzo[d]imidazole-5-carboxylic acid] | 4500 |
| CCn1c(Nc2nc3ccc(OC(F)(F)F)cc3o2)nc2cc(C(=O)NCCOC)ccc21 [Example 85, 1-ethyl-N-(2-methoxyethyl)-2-((6-(trifluoromethoxy)benzo[d]oxazol-2-yl)amino)-1H-benzo[d]imidazole-5-carboxamide] | 1300 |
